Assay results from patent US20100267561A1, “HERBICIDAL PYRIDAZINONE DERIVATIVES” (priority 2007, published 2010).

What was measured:
Assay in all cases: Test E pre-/postemergence plant response
Format in all cases: in vivo
[1] = test system: common chickweed (Stellaria media); conditions: Postemergence, scale 0 to 100
In short: (§1)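 In this greenhouse assay, sown seeds received preemergence treatment and young plants of 2 to 18 cm (1- to 4-leaf stage) received postemergence treatment, both with compound in a non-phytotoxic solvent and surfactant vehicle. Effects were rated visually 14 to 21 days later on a 0–100 control scale.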

kochia (Kochia scoparia) = conditions: scale 0 to 100
In short: as §1

[2] = test system: Virginia (V.) dayflower (Commelina virginica); conditions: scale 0 to 100
In short: as §1

[3] = test system: prickly sida (Sida spinosa); conditions: scale 0 to 100
In short: as §1

[4] = test system: quackgrass (Elytrigia repens); conditions: scale 0 to 100
In short: as §1

[5] = test system: common sowthistle (Sonchus oleraceous); conditions: scale 0 to 100
In short: as §1

[6] = test system: Russian thistle (Salsola kali); conditions: Preemergence, 4 g ai/ha; scale 0 to 100
In short: as §1

[7] = test system: surinam grass (Brachiaria decumbens); conditions: scale 0 to 100
In short: as §1

[8] = test system: itchgrass (Rottboellia cochinchinensis); conditions: scale 0 to 100
In short: as §1

[9] = test system: green foxtail (Setaria viridis); conditions: scale 0 to 100
In short: as §1

[10] = test system: common mallow (Malva sylvestris); conditions: scale 0 to 100
In short: as §1

[11] = test system: tropical (T.) spiderwort (Commelina benghalensis); conditions: scale 0 to 100
In short: as §1

CCc1cc(-c2ccc(C(F)(F)F)cc2)nn1-c1c(OC(=O)OC(C)C)cnn(C)c1=O [Compound 12]
90: Plant response rating, Surinam Grass ([7]; Postemergence, 8 g ai/ha) | Plant response rating, Foxtail, Green ([9]; Postemergence, 8 g ai/ha)
80: Plant response rating, Quackgrass ([4]; 31 g ai/ha, Preemergence) | Plant response rating, Itchgrass ([8]; 31 g ai/ha, Preemergence)
35: Plant response rating, Surinam Grass ([7]; 4 g ai/ha, Postemergence)
50: Plant response rating, Itchgrass ([8]; Postemergence, 8 g ai/ha)
95: Plant response rating, Quackgrass ([4]; Postemergence, 31 g ai/ha) | Plant response rating, Surinam Grass ([7]; 31 g ai/ha, Preemergence) | Plant response rating, Itchgrass ([8]; Postemergence, 31 g ai/ha)
100: Plant response rating, Foxtail, Green ([9]; 31 g ai/ha, Preemergence) | Plant response rating, Foxtail, Green ([9]; Postemergence, 31 g ai/ha)
20: Plant response rating, Quackgrass ([4]; 4 g ai/ha, Postemergence) | Plant response rating, Itchgrass ([8]; Preemergence, 4 g ai/ha)
0: Plant response rating, Chickweed ([1]; 4 g ai/ha) | Plant response rating, Chickweed ([1]; 8 g ai/ha) | Plant response rating, Chickweed ([1]; 31 g ai/ha) | Plant response rating, Kochia (kochia (Kochia scoparia); 4 g ai/ha, Postemergence) | Plant response rating, Kochia (kochia (Kochia scoparia); 31 g ai/ha, Preemergence) | Plant response rating, Kochia (kochia (Kochia scoparia); Postemergence, 8 g ai/ha) | Plant response rating, Kochia (kochia (Kochia scoparia); Postemergence, 31 g ai/ha) | Plant response rating, Kochia (kochia (Kochia scoparia); Preemergence, 4 g ai/ha) | Plant response rating, Dayflower, V. ([2]; 4 g ai/ha, Postemergence) | Plant response rating, Dayflower, V. ([2]; 8 g ai/ha, Preemergence) | Plant response rating, Dayflower, V. ([2]; 31 g ai/ha, Preemergence) | Plant response rating, Dayflower, V. ([2]; Postemergence, 8 g ai/ha) | Plant response rating, Dayflower, V. ([2]; Postemergence, 31 g ai/ha) | Plant response rating, Dayflower, V. ([2]; Preemergence, 4 g ai/ha) | Plant response rating, Prickly Sida ([3]; 4 g ai/ha, Postemergence) | Plant response rating, Prickly Sida ([3]; 31 g ai/ha, Preemergence) | Plant response rating, Prickly Sida ([3]; Postemergence, 8 g ai/ha) | Plant response rating, Prickly Sida ([3]; Postemergence, 31 g ai/ha) | Plant response rating, Prickly Sida ([3]; Preemergence, 4 g ai/ha) | Plant response rating, Quackgrass ([4]; Preemergence, 4 g ai/ha) | Plant response rating, Sowthistle ([5]; 4 g ai/ha, Postemergence) | Plant response rating, Sowthistle ([5]; Postemergence, 8 g ai/ha) | Plant response rating, Sowthistle ([5]; Postemergence, 31 g ai/ha) | Plant response rating, Sowthistle ([5]; Preemergence, 4 g ai/ha) | Plant response rating, Thistle, Russian [6] | Plant response rating, Surinam Grass ([7]; Preemergence, 4 g ai/ha) | Plant response rating, Itchgrass ([8]; 4 g ai/ha, Postemergence) | Plant response rating, Foxtail, Green ([9]; Preemergence, 4 g ai/ha) | Plant response rating, Mallow ([10]; 4 g ai/ha, Postemergence) | Plant response rating, Mallow ([10]; 31 g ai/ha, Preemergence) | Plant response rating, Mallow ([10]; Postemergence, 8 g ai/ha) | Plant response rating, Mallow ([10]; Postemergence, 31 g ai/ha) | Plant response rating, Mallow ([10]; Preemergence, 4 g ai/ha)
98: Plant response rating, Surinam Grass ([7]; Postemergence, 31 g ai/ha)
60: Plant response rating, Foxtail, Green ([9]; 8 g ai/ha, Preemergence)
30: Plant response rating, Quackgrass ([4]; Postemergence, 8 g ai/ha) | Plant response rating, Foxtail, Green ([9]; 4 g ai/ha, Postemergence)

Cc1cc(-c2ccc(Cl)cc2)nn1-c1c(OS(=O)(=O)c2ccccc2)cnn(C)c1=O [Compound 35]
30: Plant response rating, Quackgrass ([4]; Postemergence, 31 g ai/ha) | Plant response rating, Itchgrass ([8]; Postemergence, 8 g ai/ha)
75: Plant response rating, Surinam Grass ([7]; Postemergence, 16 g ai/ha) | Plant response rating, Itchgrass ([8]; 16 g ai/ha, Preemergence) | Plant response rating, Itchgrass ([8]; 31 g ai/ha, Preemergence) | Plant response rating, Itchgrass ([8]; 62 g ai/ha, Preemergence) | Plant response rating, Foxtail, Green ([9]; Postemergence, 62 g ai/ha)
50: Plant response rating, Quackgrass ([4]; 62 g ai/ha, Preemergence)
90: Plant response rating, Surinam Grass ([7]; Postemergence, 62 g ai/ha) | Plant response rating, Foxtail, Green ([9]; 31 g ai/ha, Preemergence)
60: Plant response rating, Foxtail, Green ([9]; Postemergence, 16 g ai/ha)
0: Plant response rating, Chickweed ([1]; 8 g ai/ha) | Plant response rating, Chickweed ([1]; 16 g ai/ha) | Plant response rating, Chickweed ([1]; 31 g ai/ha) | Plant response rating, Spiderwort, T. ([11]; 16 g ai/ha, Preemergence) | Plant response rating, Spiderwort, T. ([11]; 31 g ai/ha, Preemergence) | Plant response rating, Spiderwort, T. ([11]; 62 g ai/ha, Preemergence) | Plant response rating, Spiderwort, T. ([11]; Postemergence, 8 g ai/ha) | Plant response rating, Spiderwort, T. ([11]; Postemergence, 16 g ai/ha) | Plant response rating, Spiderwort, T. ([11]; Postemergence, 31 g ai/ha) | Plant response rating, Spiderwort, T. ([11]; Postemergence, 62 g ai/ha) | Plant response rating, Quackgrass ([4]; Postemergence, 8 g ai/ha) | Plant response rating, Mallow ([10]; 62 g ai/ha, Preemergence) | Plant response rating, Mallow ([10]; Postemergence, 8 g ai/ha) | Plant response rating, Mallow ([10]; Postemergence, 16 g ai/ha) | Plant response rating, Mallow ([10]; Postemergence, 31 g ai/ha) | Plant response rating, Mallow ([10]; Postemergence, 62 g ai/ha)
40: Plant response rating, Quackgrass ([4]; 31 g ai/ha, Preemergence) | Plant response rating, Quackgrass ([4]; Postemergence, 62 g ai/ha) | Plant response rating, Itchgrass ([8]; Postemergence, 16 g ai/ha) | Plant response rating, Foxtail, Green ([9]; Postemergence, 8 g ai/ha)
70: Plant response rating, Surinam Grass ([7]; Postemergence, 8 g ai/ha) | Plant response rating, Itchgrass ([8]; Postemergence, 31 g ai/ha) | Plant response rating, Itchgrass ([8]; Postemergence, 62 g ai/ha)
20: Plant response rating, Quackgrass ([4]; 16 g ai/ha, Preemergence)
100: Plant response rating, Surinam Grass ([7]; 31 g ai/ha, Preemergence) | Plant response rating, Surinam Grass ([7]; 62 g ai/ha, Preemergence)
15: Plant response rating, Foxtail, Green ([9]; 8 g ai/ha, Preemergence)
10: Plant response rating, Quackgrass ([4]; Postemergence, 16 g ai/ha)
98: Plant response rating, Foxtail, Green ([9]; 62 g ai/ha, Preemergence)
95: Plant response rating, Surinam Grass ([7]; 16 g ai/ha, Preemergence)
65: Plant response rating, Foxtail, Green ([9]; Postemergence, 31 g ai/ha)
80: Plant response rating, Surinam Grass ([7]; Postemergence, 31 g ai/ha)
35: Plant response rating, Foxtail, Green ([9]; 16 g ai/ha, Preemergence)
